From PubChem BioAssay AID248 (DTP/NCI, 2004)
Several values for one entry are separate records, joined by “and”; a condition that tells them apart may be missing. Equal values may be shown once. Toxic doses and inconclusive results are not listed. No stated cut-off is given here; in the data, active means T/C of 150% or more; inactive means T/C below 125%.

Test system: L1210 leukemia ip in BDF1 mice, survival T/C
Assay: NCI In Vivo Anticancer Drug Screen. Data for tumor model L1210 Leukemia (intraperitoneal) in B6D2F1 (BDF1) mice
Details: higher = longer survival
Summary of the method: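 Antitumor effect is assessed in tumor-bearing animals. Survival in the compound arm is compared with a vehicle-dosed control arm and expressed as their quotient.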

[1] = endpoint: mean survival time, dose: 100.0 mg/kg/injection, schedule: Q01DX001 (ip), vehicle: carboxymethylcellulose (CMC)
[2] = endpoint: mean survival time, dose: 200.0 mg/kg/injection, schedule: Q01DX001 (ip), vehicle: carboxymethylcellulose (CMC)
[3] = endpoint: mean survival time, dose: 100.0 mg/kg/injection, schedule: Q01DX009 (ip), vehicle: Klucel (hydroxypropylcellulose) (HPC)
[4] = endpoint: mean survival time, dose: 200.0 mg/kg/injection, schedule: Q01DX009 (ip), vehicle: Klucel (hydroxypropylcellulose) (HPC)
[5] = endpoint: mean survival time, dose: 400.0 mg/kg/injection, schedule: Q01DX009 (ip), vehicle: Klucel (hydroxypropylcellulose) (HPC)
[6] = endpoint: mean survival time, dose: 25.0 mg/kg/injection, schedule: Q04DX003 (ip), vehicle: saline
[7] = endpoint: mean survival time, dose: 50.0 mg/kg/injection, schedule: Q04DX003 (ip), vehicle: saline
[8] = endpoint: mean survival time, dose: 100.0 mg/kg/injection, schedule: Q04DX003 (ip), vehicle: Klucel (hydroxypropylcellulose) (HPC)
[9] = endpoint: mean survival time, dose: 200.0 mg/kg/injection, schedule: Q04DX003 (ip), vehicle: Klucel (hydroxypropylcellulose) (HPC)
[10] = endpoint: mean survival time, dose: 400.0 mg/kg/injection, schedule: Q04DX003 (ip), vehicle: Klucel (hydroxypropylcellulose) (HPC)
[11] = endpoint: mean survival time, dose: 100.0 mg/kg/injection, schedule: Q01DX001 (ip), vehicle: saline
[12] = endpoint: mean survival time, dose: 200.0 mg/kg/injection, schedule: Q01DX001 (ip), vehicle: saline
[13] = endpoint: mean survival time, dose: 400.0 mg/kg/injection, schedule: Q01DX001 (ip), vehicle: saline
[14] = endpoint: mean survival time, dose: 400.0 mg/kg/injection, schedule: Q01DX001 (ip), vehicle: carboxymethylcellulose (CMC)

Measured: T/C

COc1ccc(C2(C)OC(=O)c3ccccc32)c2ccccc12 (stereo unspecified)
inactive: endpoint: mean survival time, dose: 100.0 mg/kg/injection, schedule: Q01DX001 (ip), vehicle: saline with Tween-80 94 % of control | endpoint: mean survival time, dose: 200.0 mg/kg/injection, schedule: Q01DX001 (ip), vehicle: saline with Tween-80 100 % of control | endpoint: mean survival time, dose: 400.0 mg/kg/injection, schedule: Q01DX001 (ip), vehicle: saline with Tween-80 87 % of control

N=C(N)SC1c2cc(Cl)ccc2-c2c(Cl)cc(Cl)cc21 (stereo unspecified)
inactive: [1] 94 % of control | [2] 92 % of control

CCc1ccccc1NC(=O)Nc1ccc(S(N)(=O)=O)cc1
inactive: [3] 98 % of control | [4] 97 % of control | [5] 103 % of control

CC(C)C[As](=O)(O)CC(C)C
inactive: [6] 104 % of control | [7] 109 % of control

C[N+]1(CCCNC2=CC(=O)C=CC2=O)CCCC1
inactive: endpoint: mean survival time, dose: 0.5 mg/kg/injection, schedule: Q01DX001 (ip), vehicle: saline 108 % of control

NC(=O)C1CCCC12NC(=O)NC2=O (stereo unspecified)
inactive: [3] 104 % of control | [8] 100 % of control | [4] 94 % of control | [9] 103 % of control | [5] 93 % of control | [10] 97 % of control

CN1C(=O)NC(=O)C12CCNCC2
inactive: [11] 97 % of control | [12] 103 % of control | [13] 101 % of control

N#Cc1[nH]cnc1N
inactive: [11] 94 % of control | [12] 105 % of control | [13] 97 % of control

O=C1Nc2c(ccc3ccccc23)/C1=C/c1ccccc1
inactive: endpoint: mean survival time, dose: 100.0 mg/kg/injection, schedule: Q04DX003 (ip), vehicle: saline with Tween-80 100 % of control | endpoint: mean survival time, dose: 200.0 mg/kg/injection, schedule: Q04DX003 (ip), vehicle: saline with Tween-80 100 % of control | endpoint: mean survival time, dose: 400.0 mg/kg/injection, schedule: Q04DX003 (ip), vehicle: saline with Tween-80 97 % of control

COc1ccc(/C=C(\NC(C)=O)C(=O)O)cc1
inactive: [3] 104 % of control | [8] 100 % of control | [4] 97 % of control | [9] 100 % of control | [5] 98 % of control | [10] 112 % of control

COc1cc([N+](=O)[O-])c2ncccc2c1
inactive: endpoint: mean survival time, dose: 50.0 mg/kg/injection, schedule: Q01DX009 (ip), vehicle: Klucel (hydroxypropylcellulose) (HPC) 102 % of control | [3] 105 % of control | [8] 94 % of control | [4] 104 % of control | [9] 91 % of control | [5] 115 % of control | [10] 104 % of control

CCCC(Cc1ccccc1)N1CCCC1 (stereo unspecified)
inactive: endpoint: mean survival time, dose: 3.12 mg/kg/injection, schedule: Q01DX009 (ip), vehicle: saline 103 % of control | endpoint: mean survival time, dose: 6.25 mg/kg/injection, schedule: Q01DX009 (ip), vehicle: saline 103 % of control | endpoint: mean survival time, dose: 12.5 mg/kg/injection, schedule: Q01DX009 (ip), vehicle: saline 97 % of control | endpoint: mean survival time, dose: 25.0 mg/kg/injection, schedule: Q01DX009 (ip), vehicle: saline 103 % of control | [6] 92 % of control | [7] 95 % of control

CC1N(N=O)CC1(Cl)c1ccccc1 (stereo unspecified)
inactive: endpoint: mean survival time, dose: 100.0 mg/kg/injection, schedule: Q04DX002 (ip), vehicle: saline 98 % of control | endpoint: mean survival time, dose: 200.0 mg/kg/injection, schedule: Q04DX002 (ip), vehicle: saline 98 % of control | endpoint: mean survival time, dose: 400.0 mg/kg/injection, schedule: Q04DX002 (ip), vehicle: saline 102 % of control

c1ccc2c(c1)CC([CH2][Hg][CH2]C1Cc3ccccc3O1)O2 (stereo unspecified)
inactive: [1] 101 % of control | [2] 95 % of control

CSc1ccnc2[nH]ncc12
inactive: endpoint: mean survival time, dose: 100.0 mg/kg/injection, schedule: Q04DX002 (ip), vehicle: DMSO 94 % of control | endpoint: mean survival time, dose: 200.0 mg/kg/injection, schedule: Q04DX002 (ip), vehicle: DMSO 105 % of control

CS1(=O)=CC(=O)CC(c2ccccc2)C1 (stereo unspecified)
inactive: endpoint: mean survival time, dose: 100.0 mg/kg/injection, schedule: Q01DX001 (ip), vehicle: Klucel (hydroxypropylcellulose) (HPC) 101 % of control | [3] 107 % of control | [8] 106 % of control | endpoint: mean survival time, dose: 200.0 mg/kg/injection, schedule: Q01DX001 (ip), vehicle: Klucel (hydroxypropylcellulose) (HPC) 98 % of control | [4] 102 % of control | [9] 104 % of control | endpoint: mean survival time, dose: 400.0 mg/kg/injection, schedule: Q01DX001 (ip), vehicle: Klucel (hydroxypropylcellulose) (HPC) 98 % of control | [5] 107 % of control | [10] 102 % of control

C=CCc1c2c(ccc(OC)c1=O)-c1c(cc(OC)c(OC)c1OC)CCC2NC(C)=O (stereo unspecified)
inactive: [1] 106 % of control | [2] 109 % of control | [14] 109 % of control

CC12CCC3(CC1CCC1OC12)OCCO3 (stereo unspecified)
inactive: [1] 103 % of control | [2] 100 % of control | [14] 97 % of control

COc1cccc2c1C(=O)c1c(O)c3c(c(O)c1C2=O)C[C@@](O)(C(C)=O)C[C@@H]3OC1CC(NC(C)=O)C(O)C(C)O1 (stereo partly specified)
inactive: endpoint: mean survival time, dose: 0.63 mg/kg/injection, schedule: Q01DX001 (ip), vehicle: other 101 % of control | endpoint: mean survival time, dose: 1.25 mg/kg/injection, schedule: Q01DX001 (ip), vehicle: other 103 % of control | endpoint: mean survival time, dose: 1.9 mg/kg/injection, schedule: Q01DX009 (ip), vehicle: saline 103 % of control | endpoint: mean survival time, dose: 2.5 mg/kg/injection, schedule: Q01DX001 (ip), vehicle: other 107 % of control | endpoint: mean survival time, dose: 3.8 mg/kg/injection, schedule: Q01DX009 (ip), vehicle: saline 103 % of control | endpoint: mean survival time, dose: 5.0 mg/kg/injection, schedule: Q01DX001 (ip), vehicle: other 106 % of control | endpoint: mean survival time, dose: 7.5 mg/kg/injection, schedule: Q01DX009 (ip), vehicle: saline 111 % of control | endpoint: mean survival time, dose: 10.0 mg/kg/injection, schedule: Q01DX001 (ip), vehicle: other 111 % of control | endpoint: mean survival time, dose: 10.0 mg/kg/injection, schedule: Q01DX001 (ip), vehicle: saline 114 % of control | endpoint: mean survival time, dose: 20.0 mg/kg/injection, schedule: Q01DX001 (ip), vehicle: other 123 % of control | endpoint: mean survival time, dose: 20.0 mg/kg/injection, schedule: Q01DX001 (ip), vehicle: saline 111 % of control | endpoint: mean survival time, dose: 40.0 mg/kg/injection, schedule: Q01DX001 (ip), vehicle: other 122 % of control | endpoint: mean survival time, dose: 40.0 mg/kg/injection, schedule: Q01DX001 (ip), vehicle: saline 124 % of control | endpoint: mean survival time, dose: 160.0 mg/kg/injection, schedule: Q01DX001 (ip), vehicle: saline 122 % of control | endpoint: mean survival time, dose: 320.0 mg/kg/injection, schedule: Q01DX001 (ip), vehicle: saline 113 % of control | endpoint: median survival time, dose: 75.0 mg/kg/injection, schedule: Q01DX001 (ip), vehicle: propolene glycol 122 % of control and 124 % of control | endpoint: median survival time, dose: 400.0 mg/kg/injection, schedule: Q01DX001 (ip), vehicle: propolene glycol 98 % of control and 88 % of control

CN(C)CCCNC(=O)Nc1ccccc1
inactive: [3] 100 % of control | [8] 120 % of control | [4] 98 % of control | [9] 93 % of control

C(=N\N(CCCCN(/N=C/c1ccccc1)c1ccccc1)c1ccccc1)/c1ccccc1
inactive: endpoint: mean survival time, dose: 12.5 mg/kg/injection, schedule: Q01DX009 (ip), vehicle: gum acacia 111 % of control | endpoint: mean survival time, dose: 25.0 mg/kg/injection, schedule: Q01DX009 (ip), vehicle: gum acacia 96 % of control | endpoint: mean survival time, dose: 50.0 mg/kg/injection, schedule: Q01DX001 (ip), vehicle: saline 96 % of control | endpoint: mean survival time, dose: 50.0 mg/kg/injection, schedule: Q01DX009 (ip), vehicle: gum acacia 92 % of control | [11] 104 % of control | endpoint: mean survival time, dose: 100.0 mg/kg/injection, schedule: Q04DX003 (ip), vehicle: gum acacia 94 % of control | [12] 91 % of control | endpoint: mean survival time, dose: 200.0 mg/kg/injection, schedule: Q01DX009 (ip), vehicle: gum acacia 87 % of control | endpoint: mean survival time, dose: 200.0 mg/kg/injection, schedule: Q04DX003 (ip), vehicle: gum acacia 89 % of control | [13] 98 % of control | endpoint: mean survival time, dose: 400.0 mg/kg/injection, schedule: Q01DX009 (ip), vehicle: gum acacia 86 % of control | endpoint: mean survival time, dose: 400.0 mg/kg/injection, schedule: Q04DX003 (ip), vehicle: gum acacia 91 % of control

c1cnc2[nH]cnc2n1
inactive: endpoint: mean survival time, dose: 100.0 mg/kg/injection, schedule: Q01DX009 (ip), vehicle: saline 86 % of control | [8] 100 % of control | endpoint: mean survival time, dose: 200.0 mg/kg/injection, schedule: Q01DX009 (ip), vehicle: saline 109 % of control | [9] 100 % of control | endpoint: mean survival time, dose: 400.0 mg/kg/injection, schedule: Q01DX009 (ip), vehicle: saline 112 % of control | [10] 105 % of control
